Assay results as given in ChEMBL document CHEMBL6114943, “Engineered Cyclotide Blocks Neuronal Excitotoxicity” (J Med Chem, 2025).
Active and inactive are the calls of the source. The calls are words filed in the database; no cut-off is given here. Where a SMILES comes first, the peptide text is derived from it. Bridges are numbered along the chain shown (N, C = ends).

Key:
Neuron [1] = experiment: Cytotoxicity against mouse primary neuron upto 1 uM incubated for 24 hrs; assay type: toxicity, cell-based
[2] = Biodistribution in C57BL/6 mouse liver at 3 nmol/g, iv measured after 90 mins post injection using Cy7 labelled compound by fluorescence based analysis; assay type: ADME, organism-based; details: in vivo, 1.5 h
Neuron [3] = experiment: Neuroprotective activity against Amyloid beta-induced cell death in mouse primary neuron assessed as cell viability preincubated with compound for 1 hrs followed by Amyloid beta addition and measured after 1 hrs by PI staining based analysis relative to control; assay type: functional; details: time 2 hrs
Neuron [4] = experiment: Neuroprotective activity against NMDA-induced cell death in mouse primary neuron assessed as cell viability preincubated with compound for 1 hrs followed by NMDA addition and measured after 1 hrs by PI staining based analysis relative to control; assay type: functional; details: time 2 hrs
[5] = Drug uptake in mouse Primary neuron at 100 nM measured at 20 mins by inverted confocal microscopic analysis; assay type: ADME, cell-based; details: 0.1 µM
Mus musculus [6] = experiment: Neuroprotective activity against pilocarpine-induced seizure in C57BL6 mouse assessed as survival rate at 30 nmol/g, po pretreated with compound for 1 hrs followed by pilocarpine induction and measured after 2 hrs relative to control; assay type: functional; details: time 3 hrs
[7] = Toxicity in C57BL/6 mouse assessed as histological changes in lung at 3 nmol/g, iv administered 3 consecutive days by H and E staining based analysis; assay type: organism-based; details: in vivo
Mus musculus [8] = experiment: Neuroprotective activity against pilocarpine-induced seizure in C57BL6 mouse assessed as reduction in seizure severity at 3 nmol/g, iv pretreated with compound for 1 hrs followed by pilocarpine induction and measured after 2 hrs; assay type: functional, organism-based; details: time 3.0 hrs
[9] = Biodistribution in C57BL/6 mouse spleen at 3 nmol/g, iv measured after 24 hrs post injection using Cy7 labelled compound by fluorescence based analysis; assay type: ADME, organism-based; details: in vivo
[10] = Toxicity in C57BL/6 mouse assessed as change in alanine transaminase level at 3 nmol/g, iv administered 3 consecutive days; assay type: organism-based; details: in vivo
[11] = Toxicity in C57BL/6 mouse assessed as histological changes in spleen at 3 nmol/g, iv administered 3 consecutive days by H and E staining based analysis; assay type: organism-based; details: in vivo
Neuron [12] = experiment: Neuroprotective activity against NMDA-induced cell death in mouse primary neuron assessed as cell viability at 10 nM preincubated with compound for 1 hrs followed by NMDA addition and measured after 1 hrs by PI staining based analysis relative to control; assay type: functional; details: time 2 hrs, read-out: Activity
Neuron [13] = experiment: Neuroprotective activity against Amyloid beta-induced cell death in mouse primary neuron assessed as cell viability at 100 nM preincubated with compound for 1 hrs followed by Amyloid beta addition and measured after 1 hrs by PI staining based analysis; assay type: functional; details: time 2.0 hrs
[14] = Biodistribution in C57BL/6 mouse lung at 3 nmol/g, iv measured after 24 hrs post injection using Cy7 labelled compound by fluorescence based analysis; assay type: ADME, organism-based; details: in vivo
Neuron [15] = experiment: Neuroprotective activity against NMDA-induced cell death in mouse primary neuron assessed as cell viability at 1 nM preincubated with compound for 1 hrs followed by NMDA addition and measured after 1 hrs by PI staining based analysis relative to control; assay type: functional; details: time 2 hrs, read-out: Activity
[16] = Toxicity in C57BL/6 mouse assessed as histological changes in kidney at 3 nmol/g, iv administered 3 consecutive days by H and E staining based analysis; assay type: organism-based; details: in vivo
[17] = Toxicity in C57BL/6 mouse assessed as histological changes in liver at 3 nmol/g, iv administered 3 consecutive days by H and E staining based analysis; assay type: organism-based; details: in vivo
[18] = Biodistribution in C57BL/6 mouse spleen at 3 nmol/g, iv measured after 90 mins post injection using Cy7 labelled compound by fluorescence based analysis; assay type: ADME, organism-based; details: in vivo, 1.5 h
Neuron [19] = experiment: Neuroprotective activity against Amyloid beta-induced cell death in mouse primary neuron assessed as cell viability at 0.1 nM preincubated with compound for 1 hrs followed by Amyloid beta addition and measured after 1 hrs by PI staining based analysis; assay type: functional
[20] = Biodistribution in C57BL/6 mouse heart at 3 nmol/g, iv measured after 90 mins post injection using Cy7 labelled compound by fluorescence based analysis; assay type: ADME, organism-based; details: in vivo, 1.5 h
Mus musculus [21] = experiment: Neuroprotective activity against pilocarpine-induced seizure in C57BL6 mouse assessed as survival rate at 3 nmol/g, iv pretreated with compound for 1 hrs followed by pilocarpine induction and measured after 2 hrs relative to control; assay type: functional; details: time 3 hrs
[22] = Biodistribution in C57BL/6 mouse brain at 3 nmol/g, iv measured after 90 mins post injection using Cy7 labelled compound by fluorescence based analysis; assay type: ADME, organism-based; details: in vivo, 1.5 h
[23] = Biodistribution in C57BL/6 mouse lung at 3 nmol/g, iv measured after 90 mins post injection using Cy7 labelled compound by fluorescence based analysis; assay type: ADME, organism-based; details: in vivo, 1.5 h
Disks large homolog 4 = Disks large homolog 4 (Homo sapiens, UniProt P78352); experiment: Binding affinity to PSD-95 (unknown origin) assessed as binding constant (Kd) by MST analysis
[24] = Biodistribution in C57BL/6 mouse kidney at 3 nmol/g, iv measured after 90 mins post injection using Cy7 labelled compound by fluorescence based analysis; assay type: ADME, organism-based; details: in vivo, 1.5 h
Mus musculus [25] = experiment: Neuroprotective activity against pilocarpine-induced seizure in C57BL6 mouse assessed as reduction in seizure severity at 30 nmol/g, po pretreated with compound for 1 hrs followed by pilocarpine induction and measured after 2 hrs; assay type: functional, organism-based; details: time 3.0 hrs
Neuron [26] = experiment: Neuroprotective activity against NMDA-induced cell death in mouse primary neuron assessed as reduction in cell viability at 100 nM preincubated with compound for 1 hrs followed by NMDA addition and measured after 1 hrs by PI staining based analysis (reference value: 60.01 +/- 4%); assay type: functional; details: time 2 hrs

Sequence of Disks large homolog 4 (P78352 whole entry): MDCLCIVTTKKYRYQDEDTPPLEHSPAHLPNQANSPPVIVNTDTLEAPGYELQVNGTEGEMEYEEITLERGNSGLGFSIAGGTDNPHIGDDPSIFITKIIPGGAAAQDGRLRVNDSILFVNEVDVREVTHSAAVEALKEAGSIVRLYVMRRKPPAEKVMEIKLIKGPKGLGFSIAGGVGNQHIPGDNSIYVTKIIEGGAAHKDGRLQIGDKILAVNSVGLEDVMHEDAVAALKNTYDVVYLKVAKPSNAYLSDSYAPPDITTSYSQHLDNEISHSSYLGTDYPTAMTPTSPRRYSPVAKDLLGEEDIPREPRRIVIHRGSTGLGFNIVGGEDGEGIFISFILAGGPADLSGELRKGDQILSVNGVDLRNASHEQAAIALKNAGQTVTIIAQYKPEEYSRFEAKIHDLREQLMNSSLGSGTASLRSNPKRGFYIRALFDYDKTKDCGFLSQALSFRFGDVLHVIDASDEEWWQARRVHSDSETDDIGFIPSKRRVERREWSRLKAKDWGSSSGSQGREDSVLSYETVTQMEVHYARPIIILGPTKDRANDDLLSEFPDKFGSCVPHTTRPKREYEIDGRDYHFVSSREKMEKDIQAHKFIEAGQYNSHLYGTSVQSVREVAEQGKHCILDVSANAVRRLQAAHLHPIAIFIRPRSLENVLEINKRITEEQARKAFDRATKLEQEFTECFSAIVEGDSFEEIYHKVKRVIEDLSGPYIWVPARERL

## CC[C@H](C)[C@@H]1NC(=O)[C@@H]2CSSC[C@@H]3NC(=O)[C@H](C(C)C)NC(=O)[C@H](CC(=O)O)NC(=O)[C@H](CO)NC(=O)[C@H](CCC(=O)O)NC(=O)[C@H]([C@@H](C)CC)NC(=O)[C@H](CO)NC(=O)[C@H](CO)NC(=O)[C@H](CC(C)C)NC(=O)[C@H](CCCCN)NC(=O)[C@@H]4CSSC[C@H](NC(=O)[C@H](CC(=O)O)NC(=O)[C@H](CO)NC(=O)[C@H](CC(=O)O)NC(=O)[C@H](CCCNC(=N)N)NC(=O)[C@H](CCCNC(=N)N)NC(=O)[C@H](CSSC[C@H](NC1=O)C(=O)N[C@@H](CCCNC(=N)N)C(=O)NCC(=O)N[C@@H](CC(N)=O)C(=O)NCC(=O)N[C@@H](Cc1ccc(O)cc1)C(=O)N4)NC(=O)[C@H](CCCNC(=N)N)NC(=O)[C@H](CCCNC(=N)N)NC(=O)[C@H](CCCNC(=N)N)NC(=O)[C@H](CCCNC(=N)N)NC(=O)[C@H](CC(C)C)NC(=O)[C@H]([C@@H](C)CC)NC(=O)[C@H](CCCNC(=N)N)NC(=O)[C@@H]1CCCN1C3=O)C(=O)N1CCC[C@H]1C(=O)NCC(=O)N[C@@H](C)C(=O)N2 (cyclo(ACICRGNGYCKLSSIESDVCPRILRRRRCRRDSDCPG); disulfide 2-20, 4-29, 10-35)
Neuron [1]
  Activity: Non-toxic
[2]
  Drug uptake: Active
Neuron [3]
  Activity: 20.9%
Neuron [4]
  Activity: 18.2%
[5]
  Drug uptake: Active
Mus musculus [6]
  Survival: 50%
[7]
  Activity: Non-toxic
Mus musculus [8]
  Activity: Active
[9]
  Drug uptake: Not_active
[10]
  Activity: Toxic
[11]
  Activity: Non-toxic
Neuron [12]
  viability at 0.01 µM: 22.4%
Neuron [13]
  Activity: Active
[14]
  Drug uptake: Active
Neuron [15]
  viability at 0.001 µM: 39.8%
[16]
  Activity: Non-toxic
[17]
  Activity: Non-toxic
[18]
  Drug uptake: Active
Neuron [19]
  Activity: Active
[20]
  Drug uptake: Active
Mus musculus [21]
  Survival: 75%
[22]
  Drug uptake: Active
[23]
  Drug uptake: Active
Disks large homolog 4
  Kd: 1.8 µM
[24]
  Drug uptake: Active
Mus musculus [25]
  Activity: Not active; Slightly Lower Seizure Severity
Neuron [26]
  Activity: 8.56%
